Data as given in PubChem BioAssay AID1963971 (Molecular Pharmacology Branch, DTP, NCI, 2024).

Test system: 953936-095-R-J2-PDC spheroids with HUVEC/MSC, viability
Assay: Anticancer human tumor 953936-095-R-J2-PDC patient-derived cervical squamous cell carcinoma cell line growth inhibition [PI3K]
Conditions: for IC50: curve of first compound; for viability, T/C: stronger effect = lower value
In short: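 Targeted small molecules plus PI3K inhibitors, half-log dose series from Cmax (default top 10 microM), were applied to heterotypic spheroids of cancer cells with HUVEC and MSCs. Viability indicated growth inhibition.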

[1] = second compound 0.0316 µM, first compound 0.0316 µM
[2] = second compound 0.0316 µM, first compound 0.1 µM
[3] = second compound 0.0316 µM, first compound 0.316 µM
[4] = second compound 0.0316 µM, first compound 1 µM
[5] = second compound 0.0316 µM, first compound 3.16 µM
[6] = second compound 0.0316 µM, first compound 10 µM
[7] = second compound 0.1 µM, first compound 0.0316 µM
[8] = second compound 0.1 µM, first compound 0.1 µM
[9] = second compound 0.1 µM, first compound 0.316 µM
[10] = second compound 0.1 µM, first compound 1 µM
[11] = second compound 0.1 µM, first compound 3.16 µM
[12] = second compound 0.1 µM, first compound 10 µM
[13] = second compound 0.316 µM, first compound 0.0316 µM
[14] = second compound 0.316 µM, first compound 0.1 µM
[15] = second compound 0.316 µM, first compound 0.316 µM
[16] = second compound 0.316 µM, first compound 1 µM
[17] = second compound 0.316 µM, first compound 3.16 µM
[18] = second compound 0.316 µM, first compound 10 µM
[19] = second compound 1 µM, first compound 0.0316 µM
[20] = second compound 1 µM, first compound 0.1 µM
[21] = second compound 1 µM, first compound 0.316 µM
[22] = second compound 1 µM, first compound 1 µM
[23] = second compound 1 µM, first compound 3.16 µM
[24] = second compound 1 µM, first compound 10 µM
[25] = second compound 3.16 µM, first compound 0.0316 µM
[26] = second compound 3.16 µM, first compound 0.1 µM
[27] = second compound 3.16 µM, first compound 0.316 µM
[28] = second compound 3.16 µM, first compound 1 µM
[29] = second compound 3.16 µM, first compound 3.16 µM
[30] = second compound 3.16 µM, first compound 10 µM
[31] = second compound 10 µM, first compound 0.0316 µM
[32] = second compound 10 µM, first compound 0.1 µM
[33] = second compound 10 µM, first compound 0.316 µM
[34] = second compound 10 µM, first compound 1 µM
[35] = second compound 10 µM, first compound 3.16 µM
[36] = second compound 10 µM, first compound 10 µM
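Note: spheroids exposed to compounds for seven days before read-out.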

Work on `CC1(C)CCC(Nc2ncc(C(F)(F)F)c(-c3c[nH]c4c(P(C)(C)=O)c(C#N)ccc34)n2)CN1` (stereo unspecified) + Cc1nc(NC(=O)N2CCCC2C(N)=O)sc1-c1ccnc(C(C)(C)C(F)(F)F)c1 yielded an IC50 (second compound 0.0316 µM) of 0.0316 µM, an IC50 (second compound 0.1 µM) of 0.0316 µM and an IC50 (second compound 0.316 µM) of less than 0.0316 µM. It also gave an IC50 (second compound 1 µM) of less than 0.0316 µM, an IC50 (second compound 3.16 µM) of less than 0.0316 µM and an IC50 (second compound 10 µM) of less than 0.0316 µM. It also gave a viability, T/C [1] of 45.1%, a viability, T/C [2] of 50% and a viability, T/C [3] of 46.5%. The viability, T/C [4] was 52.4%, the viability, T/C [5] was 55.8% and the viability, T/C [6] was 8.23%. For the same compound, the viability, T/C [7] was 45.9%, the viability, T/C [8] was 39.1% and the viability, T/C [9] was 42.2%. It also gave a viability, T/C [10] of 42.6%, a viability, T/C [11] of 54.3% and a viability, T/C [12] of 5.8%. For the same compound, the viability, T/C [13] was 38.9%, the viability, T/C [14] was 37.8% and the viability, T/C [15] was 40.8%. For the same compound, the viability, T/C [16] was 38.9%, the viability, T/C [17] was 38.3% and the viability, T/C [18] was 3.36%. The viability, T/C [19] was 30.8%, the viability, T/C [20] was 27.1% and the viability, T/C [21] was 26%. The viability, T/C [22] was 28.1%, the viability, T/C [23] was 33.4% and the viability, T/C [24] was 1.62%. The viability, T/C [25] was 18.2%, the viability, T/C [26] was 19.4% and the viability, T/C [27] was 17.2%. It also gave a viability, T/C [28] of 20.1%, a viability, T/C [29] of 13.8% and a viability, T/C [30] of 0.46%. The viability, T/C [31] was 9.15%, the viability, T/C [32] was 9.91% and the viability, T/C [33] was 10.7%. The viability, T/C [34] was 10.3%, the viability, T/C [35] was 5.73% and the viability, T/C [36] was 0.31%.
For `Cn1ncc(Cl)c1-c1cc(C(=O)NC(CN)Cc2cccc(F)c2)sc1Cl` (stereo unspecified) + Cc1nc(NC(=O)N2CCCC2C(N)=O)sc1-c1ccnc(C(C)(C)C(F)(F)F)c1, the IC50 (second compound 0.0316 µM) was 0.378 µM, the IC50 (second compound 0.1 µM) was 0.392 µM and the IC50 (second compound 0.316 µM) was 0.165 µM. For the same compound, the IC50 (second compound 1 µM) was less than 0.0316 µM, the IC50 (second compound 3.16 µM) was less than 0.0316 µM and the IC50 (second compound 10 µM) was less than 0.0316 µM. It also gave a viability, T/C [1] of 76.7%, a viability, T/C [2] of 75.7% and a viability, T/C [3] of 50.5%. The viability, T/C [4] was 32.2%, the viability, T/C [5] was 17.5% and the viability, T/C [6] was 12.8%. For the same compound, the viability, T/C [7] was 79.4%, the viability, T/C [8] was 77.3% and the viability, T/C [9] was 53.2%. The viability, T/C [10] was 28.9%, the viability, T/C [11] was 16.6% and the viability, T/C [12] was 9.11%. It also gave a viability, T/C [13] of 60.4%, a viability, T/C [14] of 56.8% and a viability, T/C [15] of 41.8%. The viability, T/C [16] was 23.9%, the viability, T/C [17] was 13.9% and the viability, T/C [18] was 9.97%. The viability, T/C [19] was 43.5%, the viability, T/C [20] was 40% and the viability, T/C [21] was 32.1%. It also gave a viability, T/C [22] of 19.2%, a viability, T/C [23] of 11.3% and a viability, T/C [24] of 6.42%. For the same compound, the viability, T/C [25] was 25.1%, the viability, T/C [26] was 24% and the viability, T/C [27] was 19.2%. The viability, T/C [28] was 13.6%, the viability, T/C [29] was 8.24% and the viability, T/C [30] was 4.61%. For the same compound, the viability, T/C [31] was 11.2%, the viability, T/C [32] was 10.5% and the viability, T/C [33] was 11.5%. The viability, T/C [34] was 8.02%, the viability, T/C [35] was 4.99% and the viability, T/C [36] was 1.1%.
Work on `Cn1nccc1Nc1nccc(-c2ccn(C(CO)c3ccc(Cl)c(F)c3)c(=O)c2)n1` (stereo unspecified) + Cc1nc(NC(=O)N2CCCC2C(N)=O)sc1-c1ccnc(C(C)(C)C(F)(F)F)c1 yielded an IC50 (second compound 0.0316 µM) greater than 10 µM, an IC50 (second compound 0.1 µM) greater than 10 µM and an IC50 (second compound 0.316 µM) greater than 10 µM. It also gave an IC50 (second compound 1 µM) of less than 0.0316 µM, an IC50 (second compound 3.16 µM) of less than 0.0316 µM and an IC50 (second compound 10 µM) of less than 0.0316 µM. The viability, T/C [1] was 77.7%, the viability, T/C [2] was 89.9% and the viability, T/C [3] was 78.3%. The viability, T/C [4] was 69.5%, the viability, T/C [5] was 72.9% and the viability, T/C [6] was 67.1%. It also gave a viability, T/C [7] of 77.1%, a viability, T/C [8] of 76.3% and a viability, T/C [9] of 66.7%. The viability, T/C [10] was 74.3%, the viability, T/C [11] was 63% and the viability, T/C [12] was 68.5%. The viability, T/C [13] was 63.3%, the viability, T/C [14] was 55.9% and the viability, T/C [15] was 52.6%. The viability, T/C [16] was 56.4%, the viability, T/C [17] was 57.7% and the viability, T/C [18] was 52.6%. It also gave a viability, T/C [19] of 45.3%, a viability, T/C [20] of 39.7% and a viability, T/C [21] of 38.8%. The viability, T/C [22] was 37.6%, the viability, T/C [23] was 40.1% and the viability, T/C [24] was 31.9%. The viability, T/C [25] was 23.5%, the viability, T/C [26] was 23.9% and the viability, T/C [27] was 21.1%. For the same compound, the viability, T/C [28] was 17.2%, the viability, T/C [29] was 15.2% and the viability, T/C [30] was 10.8%. It also gave a viability, T/C [31] of 11.4%, a viability, T/C [32] of 9.37% and a viability, T/C [33] of 6.34%. The viability, T/C [34] was 4.57%, the viability, T/C [35] was 3.58% and the viability, T/C [36] was 1.86%.
